Test results published in patent US7582767B2 (Biovitrum AB (publ.), priority 2005, dated 2009).
Structures can show the parent of a compound that is named as a salt. Where two headings read alike, the source gives them in different places. Each block holds one molecule with its values, some of them ahead of it.

Experiments:
human 5-HT6 receptor [1] = molecular target: T1, human 5-HT6 receptor (Homo sapiens, UniProt P50406); experiment: 5-HT6 binding assay ([3H]-LSD, SPA, membranes of transfected HEK293 cells)
T1 construct: expressed in transfected cells; host or cells: HEK293

human 5-HT6 receptor [2] = molecular target: T1, human 5-HT6 receptor; experiment: 5-HT6 intrinsic activity assay (inhibition of 5-HT induced increase in cAMP); type: cell-based
5-HT1a = molecular target: T2, 5-HT1a (Homo sapiens, UniProt P08908); experiment: Selectivity binding 5-HT1a
T2 sequence (P08908 1-422): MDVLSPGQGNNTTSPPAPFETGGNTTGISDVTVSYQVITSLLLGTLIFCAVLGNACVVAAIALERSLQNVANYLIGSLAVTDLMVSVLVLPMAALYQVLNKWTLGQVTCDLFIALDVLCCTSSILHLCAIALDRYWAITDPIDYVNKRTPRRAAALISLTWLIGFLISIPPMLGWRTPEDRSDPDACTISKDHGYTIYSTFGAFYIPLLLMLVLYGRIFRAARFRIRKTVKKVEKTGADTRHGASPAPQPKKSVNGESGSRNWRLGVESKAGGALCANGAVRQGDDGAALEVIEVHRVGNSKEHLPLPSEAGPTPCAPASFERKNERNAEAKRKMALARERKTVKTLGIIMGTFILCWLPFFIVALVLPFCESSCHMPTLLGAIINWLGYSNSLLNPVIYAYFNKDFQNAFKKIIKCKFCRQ

5-HT1b = 5-HT1b (Homo sapiens, UniProt P28222); experiment: Selectivity binding 5-HT1b
5-HT2a = 5-HT2a (Homo sapiens, UniProt P28223); experiment: Selectivity binding 5-HT2a
5-HT2b = 5-HT2b (Homo sapiens, UniProt P41595); experiment: Selectivity binding 5-HT2b
5-HT2c = molecular target: T3, 5-HT2c (Homo sapiens, UniProt P28335); experiment: Selectivity binding 5-HT2c
T3 sequence (P28335 33-458): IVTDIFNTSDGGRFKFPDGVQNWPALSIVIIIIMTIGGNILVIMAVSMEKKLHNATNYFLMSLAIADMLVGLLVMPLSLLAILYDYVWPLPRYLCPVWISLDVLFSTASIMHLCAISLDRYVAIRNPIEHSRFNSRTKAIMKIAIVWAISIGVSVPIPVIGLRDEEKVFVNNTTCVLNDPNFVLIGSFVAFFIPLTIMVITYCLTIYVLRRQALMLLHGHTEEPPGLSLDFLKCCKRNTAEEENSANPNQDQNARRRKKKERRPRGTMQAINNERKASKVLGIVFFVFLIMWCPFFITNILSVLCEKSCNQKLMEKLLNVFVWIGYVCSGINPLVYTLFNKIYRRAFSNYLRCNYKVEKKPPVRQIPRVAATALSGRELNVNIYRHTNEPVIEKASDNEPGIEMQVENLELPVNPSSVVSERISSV

β1 = molecular target: T4, β1 (Homo sapiens, UniProt P08588); experiment: β1 binding (human recombinant, HEK-293 cells)
T4 construct: expressed in transfected cells; host or cells: HEK-293 cells

β2 = molecular target: T5, β2 (Homo sapiens, UniProt P07550); experiment: β2 binding (human recombinant, Sf9 cells)
T5 construct: expressed in transfected cells; host or cells: Sf9 cells

κ (KOP) [3] = molecular target: T6, κ (KOP) (Cavia porcellus, UniProt P41144); experiment: κ (KOP) binding (guinea-pig cerebellum)
T6 construct: Guinea-pig cerebellum; from tissue; host or cells: guinea-pig cerebellum

5-HT3 = molecular target: T7, 5-HT3 (Homo sapiens, UniProt P46098); experiment: 5-HT3 binding (human recombinant, HEK-293 cells)
T7 construct: expressed in transfected cells; host or cells: HEK-293 cells
T7 sequence (P46098 24-478): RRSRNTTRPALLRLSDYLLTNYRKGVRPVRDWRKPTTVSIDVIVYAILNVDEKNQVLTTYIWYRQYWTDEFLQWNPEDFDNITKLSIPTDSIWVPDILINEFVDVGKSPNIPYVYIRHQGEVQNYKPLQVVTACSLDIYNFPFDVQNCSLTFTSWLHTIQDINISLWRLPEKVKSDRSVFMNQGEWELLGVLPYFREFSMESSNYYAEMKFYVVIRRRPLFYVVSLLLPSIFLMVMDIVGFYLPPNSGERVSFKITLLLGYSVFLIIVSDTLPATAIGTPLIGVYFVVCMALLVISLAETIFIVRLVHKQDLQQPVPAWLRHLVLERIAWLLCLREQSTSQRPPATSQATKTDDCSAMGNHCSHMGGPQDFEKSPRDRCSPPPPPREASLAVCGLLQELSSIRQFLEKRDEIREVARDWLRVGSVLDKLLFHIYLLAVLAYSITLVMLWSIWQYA

κ (KOP) [4] = molecular target: κ (KOP) (Homo sapiens, UniProt P41145); experiment: κ (KOP) EC50 (method not described)
body weight of DIO rats = experiment: Effect on body weight, 28 days oral treatment of DIO rats; type: in vivo, male Sprague-Dawley rats; details: for Body weight Mean (g) Day 28: 28 days; for Basal Mean (%) Day 28: body weight % of basal; for Body weight gain Mean: day 28-initial; for Reduction % of vehicle / Reduction gram: versus vehicle at day 28
Description: (§1) (c) Effect on Body Weight and on Food Intake
(§2) The corresponding solution was used as vehicle. The stability of the solutions were checked upon storage for 14 days. Solutions were formulated twice a week and stored in freezer. The solutions were analysed for the actual concentrations and found similar between the two occasions.
(§3) Hundred (100) male Sprague-Dawley rats were raised on high fat diet at Scanbur BK AB (Sollentuna, Sweden) which upon their arrival to the Biovitrum animal care facility weighed approximately 700 g (17 weeks old). The rats were conditioned and weighed for approximately three weeks after their arrival. The rats were singly stored in standard cages during constant room conditions (temp 22+/−1° C., humidity 40-60%, 12 h light/dark cycle, lights off at 10 am). The rats received the same high fat diet (45 kcal % fat, 4.7 kcal/g; D12451) as they received at Scanbur. The diets were purchased from Research Diets, Inc., New Jersey, USA, consisted of pellets and were stored under dry and cold conditions.
(§4) The high fat fed animals which gained the highest weight were selected. This population weighed 799±60 g. The selected forty-eight (48) rats were randomized and divided into […] treatment groups in order to obtain as homogeneous groups according to body weight as possible. Each treatment group consisted of 12 rats: Group 1—vehicle, Group 2—Example 1-5 mg/kg (11 μmol/kg), Group 3—Example 1-15 mg/kg (33 μmol/kg), Group 4—Example 1-30 mg/kg (66 μmol/kg). Further nine (9) rats were allocated for measurement of compound exposure and pharmacokinetics at each dose group in parallel for the seventh and the twentyninth days. The study was started by baseline measurements for five days in order to accustom the rats to the procedure and to the experimentalists. Test compound was administered orally once a day at 9-10 am in a volume of 2.5 ml/kg i.e.an average of 2 ml per (800 g) rat. Pellets and body were weighed each day in connection with the injections. Water bottles were weighed once a week. The weighings were done with a computer-assisted Mettler Toledo PR 5002 balance. All data were transferred into an Excel template.
(§5) The food and water intake, and body weight data are calculated in gram and % of basal and expressed as mean +/−SD and/or +/−SEM.
(§6) The data of body weight and food intake was statistically analysed by two-way univariate ANOVA with repeated measurements (treatment x time) followed by one-way ANOVA for comparison between treatment groups at selected time points. Clinical chemistry measurements were analysed by one-way ANOVA followed by Dunnetts t-test for test of significance of treatment groups versus vehicle control. A difference between two groups was considered significant if P<0.05. Statistical evaluation was performed using SPSS for Windows.

food intake of DIO rats = experiment: Effect on food intake, 28 days oral treatment of DIO rats; type: in vivo, male Sprague-Dawley rats; details: for food intake versus vehicle, Dunnets t-test: first seven days
Description: as §1, §2, §3, §4, §5, §6

[5] = competition with 3 nM [3H] LSD, HEK293 membranes, read-out: 5-HT6 Binding (Ki)
[6] = read-out: 5-HT1a Selectivity Binding (Ki)
[7] = read-out: 5-HT1b Selectivity Binding (Ki)
[8] = read-out: 5-HT2a Selectivity Binding (Ki)
[9] = read-out: 5-HT2c Selectivity Binding (Ki)

Sequence of 5-HT2b (P41595 whole entry, species assumed): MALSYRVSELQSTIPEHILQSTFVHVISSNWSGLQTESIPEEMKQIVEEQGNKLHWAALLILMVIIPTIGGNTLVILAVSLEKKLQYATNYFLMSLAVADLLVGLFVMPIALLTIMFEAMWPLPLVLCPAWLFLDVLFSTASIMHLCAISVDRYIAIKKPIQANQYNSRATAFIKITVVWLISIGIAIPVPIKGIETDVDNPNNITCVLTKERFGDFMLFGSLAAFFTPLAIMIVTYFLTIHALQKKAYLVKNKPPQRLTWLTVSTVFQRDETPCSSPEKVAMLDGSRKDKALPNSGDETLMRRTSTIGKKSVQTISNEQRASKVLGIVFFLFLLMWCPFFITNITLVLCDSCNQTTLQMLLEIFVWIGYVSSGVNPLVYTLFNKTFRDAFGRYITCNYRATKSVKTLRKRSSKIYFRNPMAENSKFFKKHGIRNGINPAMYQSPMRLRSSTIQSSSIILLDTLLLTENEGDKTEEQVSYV
Sequence of 5-HT2a (P28223 whole entry, species assumed): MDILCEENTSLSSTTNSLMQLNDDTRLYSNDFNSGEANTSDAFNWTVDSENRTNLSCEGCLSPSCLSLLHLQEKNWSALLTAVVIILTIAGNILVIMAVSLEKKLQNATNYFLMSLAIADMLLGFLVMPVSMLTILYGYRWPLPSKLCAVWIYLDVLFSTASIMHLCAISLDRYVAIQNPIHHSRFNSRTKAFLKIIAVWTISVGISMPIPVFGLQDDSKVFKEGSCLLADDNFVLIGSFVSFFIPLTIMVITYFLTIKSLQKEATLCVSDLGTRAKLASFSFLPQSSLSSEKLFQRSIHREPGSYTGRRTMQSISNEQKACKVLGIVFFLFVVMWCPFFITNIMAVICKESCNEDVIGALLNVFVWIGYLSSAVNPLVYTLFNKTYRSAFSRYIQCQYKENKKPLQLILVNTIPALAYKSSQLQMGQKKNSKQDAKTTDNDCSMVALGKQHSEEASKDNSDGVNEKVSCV
T1 sequence (P50406 whole entry): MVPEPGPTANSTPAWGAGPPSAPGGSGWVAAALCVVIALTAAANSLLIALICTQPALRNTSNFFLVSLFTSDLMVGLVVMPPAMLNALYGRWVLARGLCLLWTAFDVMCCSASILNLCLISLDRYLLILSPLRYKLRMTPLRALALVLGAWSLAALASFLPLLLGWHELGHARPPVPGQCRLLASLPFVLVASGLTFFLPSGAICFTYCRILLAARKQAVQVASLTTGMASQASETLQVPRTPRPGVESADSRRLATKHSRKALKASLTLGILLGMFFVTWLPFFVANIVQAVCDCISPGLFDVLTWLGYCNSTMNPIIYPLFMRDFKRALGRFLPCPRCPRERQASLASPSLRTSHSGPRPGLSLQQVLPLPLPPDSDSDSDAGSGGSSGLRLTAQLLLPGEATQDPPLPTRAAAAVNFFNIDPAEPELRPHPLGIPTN
T6 sequence (P41144 whole entry): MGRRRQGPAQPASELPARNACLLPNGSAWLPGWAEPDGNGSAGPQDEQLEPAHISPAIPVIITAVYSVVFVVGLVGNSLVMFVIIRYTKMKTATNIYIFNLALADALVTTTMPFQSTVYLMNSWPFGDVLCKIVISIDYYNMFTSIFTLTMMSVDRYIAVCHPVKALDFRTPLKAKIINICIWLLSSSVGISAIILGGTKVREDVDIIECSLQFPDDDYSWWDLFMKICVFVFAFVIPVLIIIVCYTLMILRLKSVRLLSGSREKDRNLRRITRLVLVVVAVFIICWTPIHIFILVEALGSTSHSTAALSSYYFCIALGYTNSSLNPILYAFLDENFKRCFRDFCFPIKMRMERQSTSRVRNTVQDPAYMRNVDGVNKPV
Sequence of 5-HT1b (P28222 whole entry, species assumed): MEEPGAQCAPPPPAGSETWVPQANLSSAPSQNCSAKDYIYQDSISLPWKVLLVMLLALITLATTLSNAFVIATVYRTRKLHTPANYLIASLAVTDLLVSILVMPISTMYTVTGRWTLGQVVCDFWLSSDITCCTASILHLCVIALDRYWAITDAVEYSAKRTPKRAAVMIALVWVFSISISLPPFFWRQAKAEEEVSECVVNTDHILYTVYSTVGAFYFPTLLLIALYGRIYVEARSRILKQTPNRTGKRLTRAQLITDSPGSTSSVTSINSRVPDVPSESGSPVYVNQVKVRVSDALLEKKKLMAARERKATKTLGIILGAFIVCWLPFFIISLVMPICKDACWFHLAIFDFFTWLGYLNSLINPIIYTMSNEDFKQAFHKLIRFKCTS
T4 sequence (P08588 whole entry): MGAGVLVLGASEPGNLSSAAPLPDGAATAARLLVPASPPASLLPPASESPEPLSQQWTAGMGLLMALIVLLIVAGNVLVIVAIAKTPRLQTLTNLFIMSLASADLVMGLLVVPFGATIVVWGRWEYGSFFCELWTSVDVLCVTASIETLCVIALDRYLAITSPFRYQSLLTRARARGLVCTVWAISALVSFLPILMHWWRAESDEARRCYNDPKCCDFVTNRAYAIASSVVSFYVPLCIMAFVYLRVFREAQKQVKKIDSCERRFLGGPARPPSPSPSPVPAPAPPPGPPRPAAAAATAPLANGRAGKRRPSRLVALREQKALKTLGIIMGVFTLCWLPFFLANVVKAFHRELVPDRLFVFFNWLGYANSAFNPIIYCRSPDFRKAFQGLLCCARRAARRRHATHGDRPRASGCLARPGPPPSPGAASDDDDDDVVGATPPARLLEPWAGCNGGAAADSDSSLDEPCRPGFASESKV
T5 sequence (P07550 whole entry): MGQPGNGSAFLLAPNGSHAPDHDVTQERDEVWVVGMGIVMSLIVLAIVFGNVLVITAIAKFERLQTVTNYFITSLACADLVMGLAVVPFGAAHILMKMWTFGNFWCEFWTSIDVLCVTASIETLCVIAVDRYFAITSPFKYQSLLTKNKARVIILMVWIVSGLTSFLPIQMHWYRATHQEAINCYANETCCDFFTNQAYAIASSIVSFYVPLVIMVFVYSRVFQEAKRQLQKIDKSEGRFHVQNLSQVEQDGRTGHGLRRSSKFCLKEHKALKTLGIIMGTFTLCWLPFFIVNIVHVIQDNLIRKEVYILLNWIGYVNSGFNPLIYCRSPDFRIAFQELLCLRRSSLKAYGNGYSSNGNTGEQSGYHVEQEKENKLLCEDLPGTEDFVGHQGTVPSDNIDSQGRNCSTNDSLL
Sequence of κ (KOP) (Homo sapiens, UniProt P41145) (P41145 whole entry): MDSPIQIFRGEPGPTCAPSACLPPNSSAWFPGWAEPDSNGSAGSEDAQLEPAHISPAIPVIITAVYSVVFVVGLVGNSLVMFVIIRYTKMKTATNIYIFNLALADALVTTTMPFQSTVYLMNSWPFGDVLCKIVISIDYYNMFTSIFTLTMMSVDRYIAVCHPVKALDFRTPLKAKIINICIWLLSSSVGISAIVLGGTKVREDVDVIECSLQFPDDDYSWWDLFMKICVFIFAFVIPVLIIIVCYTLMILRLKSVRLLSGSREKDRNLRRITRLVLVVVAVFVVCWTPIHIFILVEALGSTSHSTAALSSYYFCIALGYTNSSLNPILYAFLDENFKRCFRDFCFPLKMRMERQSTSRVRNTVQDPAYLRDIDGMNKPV

SMILES: Cl.O=S(=O)(Nc1cc(OC2CCNCC2)c2occc2c1)c1ccc(Cl)s1 [Compound A, 5-chlorothiophene-2-sulphonic acid, [7-(piperidin-4-yloxy)-benzofuran-5-yl]amide, hydrochloride]
Ki (human 5-HT6 receptor [1]; [5]): 9 nM
Ki (human 5-HT6 receptor [2]): 6 nM
Ki (5-HT1a; [6]): 1520 nM
Ki (5-HT1b; [7]): 1470 nM
Ki (5-HT2a; [8]): > 1000 nM
Ki (5-HT2b): 356 nM
Ki (5-HT2c; [9]): > 1000 nM
β1 Binding % inihibition 1 μM (β1): 80%
β2 Binding % inihibition 1 μM (β2): 89%
κ (KOP) Binding % inihibition 1 μM (κ (KOP) [3]): 71%
5-HT3 Binding % inihibition 1 μM (5-HT3): 90%

SMILES: O=S(=O)(Nc1cc(OC2CCNCC2)c2occc2c1)c1ccccc1C(F)(F)F [Compound B, N-[7-(4-piperidinyloxy)-1-benzofuran-5-yl]-2-trifluoromethylbenzenesulphonamide]
Ki (human 5-HT6 receptor [1]; [5]): 4 nM
Ki (human 5-HT6 receptor [2]): 3 nM
Ki (5-HT1a; [6]): > 1000 nM
Ki (5-HT1b; [7]): 1290 nM
Ki (5-HT2a; [8]): > 1000 nM
Ki (5-HT2b): 545 nM
Ki (5-HT2c; [9]): > 1000 nM
β1 Binding % inihibition 1 μM (β1): 82%
β2 Binding % inihibition 1 μM (β2): 82%
κ (KOP) Binding % inihibition 1 μM (κ (KOP) [3]): 83%
5-HT3 Binding % inihibition 1 μM (5-HT3): 91%

SMILES: COc1cccc(C)c1NS(=O)(=O)c1cc(OC2CCNCC2)c2occc2c1 [Compound C]
Ki (human 5-HT6 receptor [1]): 26 nM
Ki (human 5-HT6 receptor [2]): 51 nM
Ki (5-HT2a; [8]): 1000 nM
Ki (5-HT2b): 600 nM
Ki (5-HT2c; [9]): 1250 nM

SMILES: COc1ccc(C)cc1NS(=O)(=O)c1cc(OC2CCCNC2)c2occc2c1 (stereo not shown) [Compound D]
Ki (human 5-HT6 receptor [1]): 14 nM
Ki (human 5-HT6 receptor [2]): 37 nM
Ki (5-HT2a; [8]): 917 nM
Ki (5-HT2b): 1450 nM
Ki (5-HT2c; [9]): 1370 nM

Ki (human 5-HT6 receptor [1]; [5]): 0.18 nM
Ki (human 5-HT6 receptor [2]): 6 nM
Ki (5-HT2a; [8]): 412 nM
Ki (5-HT2b): 19.7 nM
Ki (5-HT2c; [9]): 158 nM
SMILES: O=S(=O)(Nc1cc(N2CCNCC2)c2occc2c1)c1cccc2ccccc12 [Ex. 148, N-(7-piperazin-1-yl-benzofuran-5-yl)-1-naphthylsulphonamide, hydrochloride]

inhibition at 0.05 µM (human 5-HT6 receptor [1]; at 50 nM, either/or statement of b82, read-out: % inhibition of [3H] LSD (general statement)): ≥ 20%
Ki (5-HT1a; figure in parentheses after the bound, read-out: 5-HT1a Selectivity Binding (Ki), value in parentheses): 1400 nM
Ki (5-HT1a; [6]): > 1000 nM
Ki (5-HT1b; figure in parentheses after the bound, read-out: 5-HT1b Selectivity Binding (Ki), value in parentheses): 3600 nM
Ki (5-HT1b; [7]): > 1000 nM
Ki (5-HT2a; figure in parentheses after the bound, read-out: 5-HT2a Selectivity Binding (Ki), value in parentheses): 5600 nM
Ki (5-HT2a; [8]): > 1000 nM
Ki (5-HT2b): 440 nM
Ki (5-HT2c; figure in parentheses after the bound, read-out: 5-HT2c Selectivity Binding (Ki), value in parentheses): 2300 nM
Ki (5-HT2c; [9]): > 1000 nM
Ki (κ (KOP) [3]): 120 nM
Ki (5-HT3): 190 nM
EC50 (κ (KOP) [4]): 3780 nM
SMILES: COc1ccc(C)cc1NS(=O)(=O)c1cc(OC2CCNCC2)c2occc2c1 [Example 1]
Body weight Mean (g) Day 28 (body weight of DIO rats; 5 mg/kg p.o. once a day): 845 g
Basal Mean (%) Day 28 (body weight of DIO rats; 5 mg/kg p.o.): 103.5%
Body weight gain Mean (body weight of DIO rats; 5 mg/kg p.o.): 29 g
Reduction % of vehicle (body weight of DIO rats; 5 mg/kg p.o.): 3.9%
Reduction gram (body weight of DIO rats; 5 mg/kg p.o.): −31 gram
Body weight Mean (g) Day 28 (body weight of DIO rats; 15 mg/kg p.o. once a day): 834 g
Basal Mean (%) Day 28 (body weight of DIO rats; 15 mg/kg p.o.): 103.7%
Body weight gain Mean (body weight of DIO rats; 15 mg/kg p.o.): 30 g
Reduction % of vehicle (body weight of DIO rats; 15 mg/kg p.o.): 3.7%
Reduction gram (body weight of DIO rats; 15 mg/kg p.o.): −30 gram
Body weight Mean (g) Day 28 (body weight of DIO rats; 30 mg/kg p.o. once a day): 810 g
Basal Mean (%) Day 28 (body weight of DIO rats; 30 mg/kg p.o.): 100.6%
Body weight gain Mean (body weight of DIO rats; 30 mg/kg p.o.): 4 g
Reduction % of vehicle (body weight of DIO rats; 30 mg/kg p.o.): 6.9%
Reduction gram (body weight of DIO rats; 30 mg/kg p.o.): −57 gram
body weight throughout the whole treatment period (body weight of DIO rats; 5, 15, 30 mg/kg p.o., four weeks, repeated ANOVA P<0.001): decreased significantly
reduction in body weight (body weight of DIO rats; third dose of the sentence, printed as 15 mg/kg): 6.9%
food intake versus vehicle, Dunnets t-test (food intake of DIO rats; 15 mg/kg p.o.): significantly different from vehicle
food intake versus vehicle, Dunnets t-test (food intake of DIO rats; 30 mg/kg p.o.): significantly different from vehicle
food intake, days 8 to 14 and rest of the treatment period (food intake of DIO rats; all dose groups, P<0.076): remained decreased during the rest of the treatment period, although not statistically significant
food intake during the first seven days (food intake of DIO rats; all dose groups, repeated ANOVA P<0.001): decreased food intake significantly
minimum effective dose (food intake of DIO rats; food intake, p.o.): 15 mg/kg

SMILES: CN1C[C@@H](NS(=O)(=O)N(C)C)C[C@@H]2c3cccc4c3c(cn4C)C[C@H]21 [mesulergide]
Ki (human 5-HT6 receptor [1]; [5]): 1970 nM
